Measured values reported in paper PMC12454493, “Insight on novel sulfamoylphenyl pyrazole derivatives as anticancer carbonic anhydrase inhibitors” (Molecular Diversity, 2024).

Assays:
hCA XII = hCA XII (Homo sapiens, UniProt O43570); assay: CA inhibitory activity, spectrophotometric p-NPA assay; type: biochemical; settings: p-NPA substrate, pH 7.5, 25 °C, triplicate; read-out: IC50 (µM) ± SD hCA XII
KM12 = assay: NCI-60 one-dose SRB screen (Colon Cancer); type: cell-based; settings: Homo sapiens, single dose 10 µM, 48 h, read-out: Growth inhibition percent (GI %)
SW-620 = assay: NCI-60 one-dose SRB screen (Colon Cancer); type: cell-based; settings: Homo sapiens, single dose 10 µM, 48 h, read-out: Growth inhibition percent (GI %)
HCC-2998 = assay: NCI-60 one-dose SRB screen (Colon Cancer); type: cell-based; settings: Homo sapiens, single dose 10 µM, 48 h, read-out: Growth inhibition percent (GI %)
HCT-116 = assay: NCI-60 one-dose SRB screen (Colon Cancer); type: cell-based; settings: Homo sapiens, single dose 10 µM, 48 h, read-out: Growth inhibition percent (GI %)
HT29 = assay: NCI-60 one-dose SRB screen (Colon Cancer); type: cell-based; settings: Homo sapiens, HT-29, single dose 10 µM, 48 h, read-out: Growth inhibition percent (GI %)
COLO 205 = assay: NCI-60 one-dose SRB screen (Colon Cancer); type: cell-based; settings: Homo sapiens, single dose 10 µM, 48 h, read-out: Growth inhibition percent (GI %)
HCT-15 = assay: NCI-60 one-dose SRB screen (Colon Cancer); type: cell-based; settings: Homo sapiens, single dose 10 µM, 48 h, read-out: Growth inhibition percent (GI %)
SN12C = assay: NCI-60 one-dose SRB screen (Renal Cancer); type: cell-based; settings: Homo sapiens, single dose 10 µM, 48 h, read-out: Growth inhibition percent (GI %)
UO-31 = assay: NCI-60 one-dose SRB screen (Renal Cancer); type: cell-based; settings: Homo sapiens, single dose 10 µM, 48 h, read-out: Growth inhibition percent (GI %)
A498 = assay: NCI-60 one-dose SRB screen (Renal Cancer); type: cell-based; settings: Homo sapiens, single dose 10 µM, 48 h, read-out: Growth inhibition percent (GI %)
TK-10 = assay: NCI-60 one-dose SRB screen (Renal Cancer); type: cell-based; settings: Homo sapiens, single dose 10 µM, 48 h, read-out: Growth inhibition percent (GI %)
786-0 = assay: NCI-60 one-dose SRB screen (Renal Cancer); type: cell-based; settings: Homo sapiens, single dose 10 µM, 48 h, read-out: Growth inhibition percent (GI %)
RXF 393 = assay: NCI-60 one-dose SRB screen (Renal Cancer); type: cell-based; settings: Homo sapiens, single dose 10 µM, 48 h, read-out: Growth inhibition percent (GI %)
CAKI-1 = assay: NCI-60 one-dose SRB screen (Renal Cancer); type: cell-based; settings: Homo sapiens, single dose 10 µM, 48 h, read-out: Growth inhibition percent (GI %)
ACHN = assay: NCI-60 one-dose SRB screen (Renal Cancer); type: cell-based; settings: Homo sapiens, single dose 10 µM, 48 h, read-out: Growth inhibition percent (GI %)
OVCAR-3 = assay: NCI-60 one-dose SRB screen (Ovarian cancer); type: cell-based; settings: Homo sapiens, single dose 10 µM, 48 h, read-out: Growth inhibition percent (GI %)
OVCAR-5 = assay: NCI-60 one-dose SRB screen (Ovarian cancer); type: cell-based; settings: Homo sapiens, single dose 10 µM, 48 h, read-out: Growth inhibition percent (GI %)
OVCAR-4 = assay: NCI-60 one-dose SRB screen (Ovarian cancer); type: cell-based; settings: Homo sapiens, single dose 10 µM, 48 h, read-out: Growth inhibition percent (GI %)
IGROV1 = assay: NCI-60 one-dose SRB screen (Ovarian cancer); type: cell-based; settings: Homo sapiens, IGROV-1, single dose 10 µM, 48 h, read-out: Growth inhibition percent (GI %)
SK-OV-3 = assay: NCI-60 one-dose SRB screen (Ovarian cancer); type: cell-based; settings: Homo sapiens, single dose 10 µM, 48 h, read-out: Growth inhibition percent (GI %)
NCI/ADR-RES = assay: NCI-60 one-dose SRB screen (Ovarian cancer); type: cell-based; settings: Homo sapiens, single dose 10 µM, 48 h, read-out: Growth inhibition percent (GI %)
OVCAR-8 = assay: NCI-60 one-dose SRB screen (Ovarian cancer); type: cell-based; settings: Homo sapiens, single dose 10 µM, 48 h, read-out: Growth inhibition percent (GI %)
SNB-75 = assay: NCI-60 one-dose SRB screen (CNS Cancer); type: cell-based; settings: Homo sapiens, single dose 10 µM, 48 h, read-out: Growth inhibition percent (GI %)
U251 = assay: NCI-60 one-dose SRB screen (CNS Cancer); type: cell-based; settings: Homo sapiens, U-251, single dose 10 µM, 48 h, read-out: Growth inhibition percent (GI %)
SNB-19 = assay: NCI-60 one-dose SRB screen (CNS Cancer); type: cell-based; settings: Homo sapiens, single dose 10 µM, 48 h, read-out: Growth inhibition percent (GI %)
SF-539 = assay: NCI-60 one-dose SRB screen (CNS Cancer); type: cell-based; settings: Homo sapiens, single dose 10 µM, 48 h, read-out: Growth inhibition percent (GI %)
SF-268 = assay: NCI-60 one-dose SRB screen (CNS Cancer); type: cell-based; settings: Homo sapiens, single dose 10 µM, 48 h, read-out: Growth inhibition percent (GI %)
SF-295 = assay: NCI-60 one-dose SRB screen (CNS Cancer); type: cell-based; settings: Homo sapiens, single dose 10 µM, 48 h, read-out: Growth inhibition percent (GI %)
PC-3 = assay: NCI-60 one-dose SRB screen (Prostate Cancer); type: cell-based; settings: Homo sapiens, single dose 10 µM, 48 h, read-out: Growth inhibition percent (GI %)
DU-145 = assay: NCI-60 one-dose SRB screen (Prostate Cancer); type: cell-based; settings: Homo sapiens, single dose 10 µM, 48 h, read-out: Growth inhibition percent (GI %)
NCI-H23 = assay: NCI-60 one-dose SRB screen (Non-Small Cell Lung Cancer); type: cell-based; settings: Homo sapiens, single dose 10 µM, 48 h, read-out: Growth inhibition percent (GI %)
NCI-H226 = assay: as above; type: cell-based; settings: Homo sapiens, single dose 10 µM, 48 h, read-out: Growth inhibition percent (GI %)
NCI-H460 = assay: as above; type: cell-based; settings: Homo sapiens, single dose 10 µM, 48 h, read-out: Growth inhibition percent (GI %)
NCI-H322M = assay: as above; type: cell-based; settings: Homo sapiens, single dose 10 µM, 48 h, read-out: Growth inhibition percent (GI %)
A549/ATCC = assay: as above; type: cell-based; settings: Homo sapiens, single dose 10 µM, 48 h, read-out: Growth inhibition percent (GI %)
EKVX = assay: as above; type: cell-based; settings: Homo sapiens, single dose 10 µM, 48 h, read-out: Growth inhibition percent (GI %)
HOP-92 = assay: as above; type: cell-based; settings: Homo sapiens, single dose 10 µM, 48 h, read-out: Growth inhibition percent (GI %)
HOP-62 = assay: as above; type: cell-based; settings: Homo sapiens, single dose 10 µM, 48 h, read-out: Growth inhibition percent (GI %)
NCI-H522 = assay: as above; type: cell-based; settings: Homo sapiens, single dose 10 µM, 48 h, read-out: Growth inhibition percent (GI %)
MDA-MB-435 = assay: NCI-60 one-dose SRB screen (Melanoma); type: cell-based; settings: Homo sapiens, single dose 10 µM, 48 h, read-out: Growth inhibition percent (GI %)
SK-MEL-2 = assay: NCI-60 one-dose SRB screen (Melanoma); type: cell-based; settings: Homo sapiens, single dose 10 µM, 48 h, read-out: Growth inhibition percent (GI %)
MALME-3M = assay: NCI-60 one-dose SRB screen (Melanoma); type: cell-based; settings: Homo sapiens, single dose 10 µM, 48 h, read-out: Growth inhibition percent (GI %)
UACC-257 = assay: NCI-60 one-dose SRB screen (Melanoma); type: cell-based; settings: Homo sapiens, single dose 10 µM, 48 h, read-out: Growth inhibition percent (GI %)
SK-MEL-28 = assay: NCI-60 one-dose SRB screen (Melanoma); type: cell-based; settings: Homo sapiens, single dose 10 µM, 48 h, read-out: Growth inhibition percent (GI %)
LOX IMVI = assay: NCI-60 one-dose SRB screen (Melanoma); type: cell-based; settings: Homo sapiens, single dose 10 µM, 48 h, read-out: Growth inhibition percent (GI %)
SK-MEL-5 = assay: NCI-60 one-dose SRB screen (Melanoma); type: cell-based; settings: Homo sapiens, single dose 10 µM, 48 h, read-out: Growth inhibition percent (GI %)
M14 = assay: NCI-60 one-dose SRB screen (Melanoma); type: cell-based; settings: Homo sapiens, single dose 10 µM, 48 h, read-out: Growth inhibition percent (GI %)

Sequence of hCA XII (O43570 25-354): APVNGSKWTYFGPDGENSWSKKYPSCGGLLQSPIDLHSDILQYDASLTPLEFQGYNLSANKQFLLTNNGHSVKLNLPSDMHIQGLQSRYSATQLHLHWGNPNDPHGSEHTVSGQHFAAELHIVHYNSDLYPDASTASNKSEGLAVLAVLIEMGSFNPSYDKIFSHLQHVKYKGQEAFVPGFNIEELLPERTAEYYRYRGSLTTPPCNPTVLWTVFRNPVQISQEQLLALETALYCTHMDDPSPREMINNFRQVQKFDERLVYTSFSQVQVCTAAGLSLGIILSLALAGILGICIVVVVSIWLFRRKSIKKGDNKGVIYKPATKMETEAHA

CS(=O)(=O)c1ccc(-c2nn(-c3ccc(S(N)(=O)=O)cc3)cc2C(=O)NNC(N)=S)cc1 [Compound 9e, 2-[3-(4-(Methylsulfonyl)phenyl)-1-(4-sulfamoylphenyl)-1H-pyrazole-4-carbonyl] hydrazine-1-carbothioamide]
12.3%: inhibition at 10 µM (NCI-H522)
5.48%: inhibition at 10 µM (UO-31)
0.929 ± 0.035 µM: IC50 (hCA XII)
6.39%: inhibition at 10 µM (NCI-H226)
< 5%: inhibition at 10 µM (KM12) | inhibition at 10 µM (SW-620) | inhibition at 10 µM (HCC-2998) | inhibition at 10 µM (HCT-116) | inhibition at 10 µM (HT29) | inhibition at 10 µM (COLO 205) | inhibition at 10 µM (HCT-15) | inhibition at 10 µM (SN12C) | inhibition at 10 µM (A498) | inhibition at 10 µM (TK-10) | inhibition at 10 µM (786-0) | inhibition at 10 µM (RXF 393) | inhibition at 10 µM (ACHN) | inhibition at 10 µM (OVCAR-3) | inhibition at 10 µM (OVCAR-5) | inhibition at 10 µM (OVCAR-4) | inhibition at 10 µM (IGROV1) | inhibition at 10 µM (SK-OV-3) | inhibition at 10 µM (NCI/ADR-RES) | inhibition at 10 µM (OVCAR-8) | inhibition at 10 µM (U251) | inhibition at 10 µM (SNB-19) | inhibition at 10 µM (SF-539) | inhibition at 10 µM (SF-268) | inhibition at 10 µM (SF-295) | inhibition at 10 µM (PC-3) | inhibition at 10 µM (DU-145) | inhibition at 10 µM (NCI-H23) | inhibition at 10 µM (NCI-H460) | inhibition at 10 µM (NCI-H322M) | inhibition at 10 µM (A549/ATCC) | inhibition at 10 µM (EKVX) | inhibition at 10 µM (HOP-92) | inhibition at 10 µM (HOP-62) | inhibition at 10 µM (MDA-MB-435) | inhibition at 10 µM (SK-MEL-2) | inhibition at 10 µM (MALME-3M) | inhibition at 10 µM (SK-MEL-28) | inhibition at 10 µM (LOX IMVI) | inhibition at 10 µM (SK-MEL-5) | inhibition at 10 µM (M14)
15.9%: inhibition at 10 µM (SNB-75)
9.93%: inhibition at 10 µM (CAKI-1)
7%: inhibition at 10 µM (UACC-257)

NC(=S)NNC(=O)c1cn(-c2ccc(S(N)(=O)=O)cc2)nc1-c1ccc(Br)cc1 [Compound 9d, 2-[3-(4-Bromophenyl)-1-(4-sulfamoylphenyl)-1H-pyrazole-4-carbonyl] hydrazine-1-carbothioamide]
1.42 ± 0.053 µM: IC50 (hCA XII)
12.1%: inhibition at 10 µM (CAKI-1) | inhibition at 10 µM (SNB-75)
10.9%: inhibition at 10 µM (MALME-3M)
6.59%: inhibition at 10 µM (SF-539)
14.7%: inhibition at 10 µM (UO-31)
8.15%: inhibition at 10 µM (NCI-H522)
14.9%: inhibition at 10 µM (NCI-H322M)
20.2%: inhibition at 10 µM (IGROV1)
< 5%: inhibition at 10 µM (KM12) | inhibition at 10 µM (SW-620) | inhibition at 10 µM (HCC-2998) | inhibition at 10 µM (HCT-116) | inhibition at 10 µM (HT29) | inhibition at 10 µM (COLO 205) | inhibition at 10 µM (HCT-15) | inhibition at 10 µM (SN12C) | inhibition at 10 µM (A498) | inhibition at 10 µM (TK-10) | inhibition at 10 µM (786-0) | inhibition at 10 µM (RXF 393) | inhibition at 10 µM (ACHN) | inhibition at 10 µM (OVCAR-3) | inhibition at 10 µM (OVCAR-5) | inhibition at 10 µM (OVCAR-4) | inhibition at 10 µM (SK-OV-3) | inhibition at 10 µM (NCI/ADR-RES) | inhibition at 10 µM (OVCAR-8) | inhibition at 10 µM (U251) | inhibition at 10 µM (SNB-19) | inhibition at 10 µM (SF-268) | inhibition at 10 µM (SF-295) | inhibition at 10 µM (PC-3) | inhibition at 10 µM (DU-145) | inhibition at 10 µM (NCI-H23) | inhibition at 10 µM (NCI-H226) | inhibition at 10 µM (NCI-H460) | inhibition at 10 µM (A549/ATCC) | inhibition at 10 µM (EKVX) | inhibition at 10 µM (HOP-92) | inhibition at 10 µM (HOP-62) | inhibition at 10 µM (MDA-MB-435) | inhibition at 10 µM (SK-MEL-2) | inhibition at 10 µM (UACC-257) | inhibition at 10 µM (SK-MEL-28) | inhibition at 10 µM (LOX IMVI) | inhibition at 10 µM (SK-MEL-5) | inhibition at 10 µM (M14)
